Source: US9670242B2, “Tetracyclic anthraquinone derivatives” (Tianjin Hemay Bio-Tech Co., Ltd, priority 2012, dated 2017)
Where a name gives a salt, the structure may show the parent alone. Values belong to the compound of their own block, whether it stands above or below them.

Legend:
[1] = system: A375 cells; experiment: A375 cell growth inhibition test (MTT assay); assay type: cell-based, human; settings: 72 h
Experimental: A375 Cell Growth Inhibition Test (MTT Assay)
(§1) II. Reagents and Consumable Materials
Culture medium: 90% DMEM+10% FBS (fetal calf serum); Pancreatin (0.25% (w/v) solution was formulated with PBS, 0.53 mM of EDTA was added in the formulation); PBS; 96-well culture plate.
(§2) 1. A plate (10 cm) of cells in logarithmic growth phase that were normally cultured was collected;
(§3) 2. The culture solution was sucked out. The plate was washed with 5 mL of PBS once or twice;
(§4) 3. PBS was sucked out. 1.5 mL of 0.25% pancreatin was added to the plate to infiltrate the cells for 1 min;
(§5) 4. The culture plate was placed in an incubator. Digestion was carried out for about 5 min at 37° C.;
(§6) 5. 3 mL of complete culture solution was added to the culture plate to stop the digestion. The cells were carefully scoured with micropipette (1 ml) to give a uniform cell suspension. The suspension was implanted into a 96-well cell culture disc by 3000 cells/100 μL per well. The culture plate was incubated overnight under 5% CO2 at 37° C. In day 2, 100 μL of culture solution comprising a compound was added in each well. The plate was further incubated for 72 h under 5% CO2 at 37° C.;
(§7) 6. The culture solution was sucked out;
(§8) 7. 100 μL of serum-free culture solution containing 0.5 mg/mL MTT was added in each well. The plate was incubated for 3 h;
(§9) 8. The culture solution was carefully sucked out;
(§10) 9. 100 μL of DMSO was added in each well and vibrated to dissolve;
(§11) 10. OD values were determined at 490 nM.
(§12) IV. Results and Treatments
(§13) 1. Calculation of Relative Inhibition Ratio The inhibition ratio of a compound on cell growth=(PC−n)/(PC−NC)×100%
(§14) PC: OD values of cells after normal growth in control wells without a compound;
(§15) n: OD values of cells after growth in test wells with a compound;
(§16) NC: Background OD values of blank wells without a compound and cells.

[2] = system: A431 cells; experiment: A431 cell growth inhibition test (MTT assay); assay type: cell-based, human; settings: 72 h
Experimental: A431 Cell Growth Inhibition Test (MTT Assay)
as §1
Culture medium: 45% DMEM+45% F12+10% FBS (fetal calf serum); Pancreatin (0.25% (w/v) solution was formulated with PBS, 0.53 mM of EDTA was added in the formulation); PBS; 96-well culture plate.
as §2, §3, §4, §5
as §6, with “mL)” for “ml)”, “2500” for “3000”
as §7, §8, §9, §10, §11, §12, §13, §14, §15, §16

[3] = system: SK-OV-3 cells; experiment: SK-OV-3 cell growth inhibition test (MTT assay); assay type: cell-based, human; settings: growth inhibition at 667 nM, 69 h
Experimental: SK-OV-3 Cell Growth Inhibition Test (MTT Assay)
Cell strains: SK-OV-3 (human ovarian cancer cell strains); MTT; antitumor compounds; DMSO.
as §1
Culture medium: 90% McCoy's 5A+10% FBS; Pancreatin (0.25% (w/v) solution was formulated with PBS, 0.53 mM of EDTA was added in the formulation); PBS; 96-well culture plate.
as §2, §3
(§17) 3. PBS was sucked out. 1.5 mL of 0.25% pancreatin was added to infiltrate the cells;
4. The pancreatin was sucked out. The culture plate was placed in an incubator. Digestion was carried out for about 5 min at 37° C.;
as §6, with “5. 4.5” for “5. 3”, “by 4000” for “by 3000”, “for 69” for “for 72”
as §7, §8, §9, §10, §11, §12, §13, §14, §15, §16

[4] = system: BxPc-3 cells; experiment: BxPc-3 cell growth inhibition test (MTT assay); assay type: cell-based, human; settings: growth inhibition at 2000 nM, 70 h
Experimental: BxPc-3 Cell Growth Inhibition Test (MTT Assay)
Cell strains: BxPC-3 (human pancreatic cancer cell strains); MTT; antitumor compounds; DMSO.
as §1
(§18) Culture medium: 90% RPMI-1640+10% FBS; Pancreatin (0.25% (w/v) solution was formulated with PBS, 0.53 mM of EDTA was added in the formulation); PBS; 96-well culture plate.
as §2, §3, §17
4. The culture plate was placed in an incubator. Digestion was carried out for about 8 min at 37° C.;
as §6, with “5. 4.5” for “5. 3”, “by 5000” for “by 3000”, “for 70” for “for 72”
as §7, §8, §9
(§19) 9. 100 μL of DMSO was added into each well and vibrated to dissolve;
as §11, §12, §13, §14, §15, §16

[5] = system: NCI-H446 cells; experiment: NCI-H446 cell growth inhibition test (MTT assay); assay type: cell-based, human; settings: growth inhibition at 222 nM, 70 h
Experimental: NCI-H446 Cell Growth Inhibition Test (MTT Assay)
Cell strains: NCI-H446 (human small cell lung cancer cell strains); MTT; antitumor compounds; DMSO.
as §1, §18, §2, §3, §17
4. The culture plate was placed in an incubator. Digestion was carried out for about 3 min at 37° C.;
as §6, with “4000” for “3000”, “70” for “72”
as §7, §8, §9, §19, §11, §12, §13, §14, §15, §16

[6] = system: MDA-MB-453 cells; experiment: MDA-MB-453 cell growth inhibition test (SRB assay); assay type: cell-based, human; settings: growth inhibition at 2000 nM, 69.5 h
Experimental: MDA-MB-453 Cell Growth Inhibition Test (SRB Assay)
Cell strains: MDA-MB-453 (human breast cancer cell strains); SRB: 0.4% (w/v) working solution was formulated with 1% glacial acetic acid, reserved at 4° C.; antitumor compounds; DMSO.
as §1
Culture medium: 90% L15+10% FBS; pancreatin (0.25% (w/v) solution was formulated with PBS, 0.53 mM of EDTA was added in the formulation); PBS; 96-well culture plate.
as §2, §3
(§20) 3. 1.5 mL of 0.25% pancreatin was added to the plate to infiltrate the cells;
(§21) 4. The pancreatin was sucked out. The culture plate was placed in an incubator. Digestion was carried out for about 3 min at 37° C.;
as §6, with “5. 4” for “5. 3”, “uniform single” for “uniform”, “culture plate” for “culture disc”, “by 7000” for “by 3000”, “well.” for “well. The plate was further incubated for 72 h under 5% CO2 at 37° C.;”
The plate was further incubated for 69.5 h under 5% CO2 at 37° C.;
(§22) 6. The culture solution was sucked out. 100 uL of TCA fixed cells which were diluted to 10% were added to each well. The plate was kept in a refrigerator for 1 h at 4° C.
(§23) 7. TCA stationary liquid was sucked out. Each well was washed with 150 μL of ddH2O five times;
(§24) 8. After the stationary liquid was cleansed, the plate was dried in the air at the room temperature;
(§25) 9. 60 μL of SRB staining solution was added in each well. The well was stained for 15 min at the room temperature;
(§26) 10. The SRB staining solution was sucked out. Each well was washed with 150 μL of 1% glacial acetic acid five times;
(§27) 11. After the SRB staining solution was cleansed, the plate was dried in the air at the room temperature;
(§28) 12. 100 μL of 10 mM Tris was added in each well. The plate was vibrated to dissolve out SRB;
(§29) 13. OD values were determined at 570 nM.
as §12, §13, §14, §15, §16

[7] = system: 22Rv1 cells; experiment: 22Rv1 cell growth inhibition test (SRB assay); assay type: cell-based, human; settings: growth inhibition at 222 nM, 73 h
Experimental: 22Rv1 Cell Growth Inhibition Test (SRB Assay)
Cell strains: 22Rv1 (human prostate cancer cell strains); SRB: 0.4% (w/v) working solution was formulated with 1% glacial acetic acid, reserved at 4° C.; antitumor compounds; DMSO.
as §1, §18, §2, §3, §20, §21
as §6, with “5. 4” for “5. 3”, “uniform single” for “uniform”, “culture plate” for “culture disc”, “by 7000” for “by 3000”, “for 73” for “for 72”
as §22, §23, §24, §25, §26, §27, §28, §29, §12, §13, §14, §15, §16

[8] = Solubility of the compound in water; assay type: physicochemical

solubility of the compound in water [8]: more than 10.6 mg/ml
SMILES: CC(=O)O.COc1cccc2c1C(=O)c1c(O)c3c(c(O)c1C2=O)CC(O)(C(=O)COC(=O)CCC(=O)N1CCN(CCO)CC1)CC3O[C@H]1C[C@H](n2cccc2)[C@H](O)[C@H](C)O1 (stereo partly drawn) [Example 77, 10-((3′-(pyrrol-1-yl)-2′,3′,6′-trideoxy-alphal-l-lyxo-hexylpyranyl)oxy)-7,8,9,10-tetrahydro-6,8,11-trihydroxy-13-oxo-14-(4-((4-(2-hydroxy)ethyl)piperazin-1-yl)-4-oxo-butyrato)-1-methoxy-5,12-naphthalenedione acetate]
Inhibition Ratio (%) [3]: 60.4%
Inhibition Ratio (%) [4]: 83.3%
Inhibition Ratio (%) [5]: 59.1%
Inhibition Ratio (%) [6]: 79.7%
Inhibition Ratio (%) [7]: 57.9%

solubility of the compound in water [8]: more than 5 mg/ml
SMILES: CC(=O)O.COc1cccc2c1C(=O)c1c(O)c3c(c(O)c1C2=O)CC(O)(C(=O)COC(=O)CCC(=O)NN1CCN(C)CC1)CC3O[C@H]1C[C@H](n2cccc2)[C@H](O)[C@H](C)O1 (stereo partly shown) [Example 79]

solubility of the compound in water [8]: more than 11 mg/ml
SMILES: CC(=O)O.CCN1CCN(C(=O)CCC(=O)OCC(=O)C2(O)Cc3c(O)c4c(c(O)c3C(O[C@H]3C[C@H](n5cccc5)[C@H](O)[C@H](C)O3)C2)C(=O)c2c(OC)cccc2C4=O)CC1 (stereo partly drawn) [Example 80, 10-((3′-(pyrrol-1-yl)-2′,3′,6′-trideoxy-alphal-l-lyxo-hexylpyranyl)oxy)-7,8,9,10-tetrahydro-6,8,11-trihydroxy-13-oxo-14-(4-(4-ethylpiperazin-1-yl)-4-oxo-butyrato)-1-methoxy-5,12-naphthalenedione acetate]

Second part, the compound before the results:

SMILES: COc1cccc2c1C(=O)c1c(O)c3c(c(O)c1C2=O)CC(O)(C(=O)COC(=O)CCCC(=O)NCCN1CCOCC1)CC3OC1CC(n2cccc2)C(O)C(C)O1 (stereo not shown) [Example 97]
IC50 [1]: 28 nM
IC50 [2]: 45 nM

SMILES: CC(=O)O.COc1cccc2c1C(=O)c1c(O)c3c(c(O)c1C2=O)CC(O)(C(=O)COC(=O)CCC(=O)NCc1cccnc1)CC3O[C@H]1C[C@H](n2cccc2)[C@H](O)[C@H](C)O1 (stereo partly shown) [Example 83]
solubility of the compound in water [8]: more than 1 mg/ml

SMILES: CC(=O)O.COc1cccc2c1C(=O)c1c(O)c3c(c(O)c1C2=O)CC(O)(C(=O)COC(=O)CCC(=O)NCCOCCN(C)C)CC3O[C@H]1C[C@H](n2cccc2)[C@H](O)[C@H](C)O1 (stereo partly drawn) [Example 76, 10-((3′-(pyrrol-1-yl)-2′,3′,6′-trideoxy-alphal-l-lyxo-hexylpyranyl)oxy)-7,8,9,10-tetrahydro-6,8,11-trihydroxy-13-oxo-14-(4-(2-(2-(dimethylamino)ethoxy)ethylamino)-4-oxo-butyrato)-1-methoxy-5,12-naphthalenedione acetate]
Inhibition Ratio (%) [3]: 46.4%
Inhibition Ratio (%) [4]: 77.1%
Inhibition Ratio (%) [5]: 46%
Inhibition Ratio (%) [6]: 62.7%
Inhibition Ratio (%) [7]: 49.2%
solubility of the compound in water [8]: more than 9 mg/ml

SMILES: COc1cccc2c1C(=O)c1c(O)c3c(c(O)c1C2=O)CC(O)(C(=O)COC(=O)CCC(=O)NCCOCCN(C)C)CC3OC1CC(n2cccc2)C(O)C(C)O1 (stereo not shown) [Example 6]
IC50 [1]: 67 nM

SMILES: COc1cccc2c1C(=O)c1c(O)c3c(c(O)c1C2=O)CC(O)(C(=O)COC(=O)CCC(=O)NCCN1CCOCC1)CC3O[C@H]1C[C@H](n2cccc2)[C@H](O)[C@H](C)O1 (stereo partly drawn) [Example 99, 10-((3′-(pyrrol-1-yl)-2′,3′,6′-trideoxy-alphal-l-lyxo-hexylpyranyl)oxy)-7,8,9,10-tetrahydro-6,8,11-trihydroxy-13-oxo-14-(4-((2-(morpholin-1-yl)ethyl)amino)-4-oxo-butyrato)-1-methoxy-5,12-naphthalenedione hydrochloride]
IC50 ([1]; hydrochloride): 35 nM
